The results in this text go back to patent US20170050980A1, “OXADIAZINE COMPOUNDS AND METHODS OF USE THEREOF” (FORUM Pharmaceuticals Inc., priority 2015, published 2017).

This test relates to Aβ42. The test can be described thus: In vitro cell screening assay; quantification of Aβ (1-42) peptide by sandwich ELISA. It is filed as cell-based. Particulars: Human neuroglioma H4 cells stably expressing human wild type APP751; compounds 0.003-10 μM, incubated overnight (16-18 h); Aβ42 in supernatant by sandwich ELISA; normalized to DMSO and DAPT; read-out: Aβ42 H4 Prot Fre IC50. The method, boiled down: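 Stable H4 neuroglioma line expressing human wild-type APP751; compounds 0.003-10 μM (0.33% DMSO final) added in Pro293 medium 6 h after plating, incubated overnight (16-18 h) at 37 °C. Secreted Aβ42 measured in supernatant by C-terminal-capture sandwich ELISA with 4G8-HRP detection; IC50 by sigmoidal fit, normalized to DMSO and DAPT.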

As to `COc1nc(C2=NOC(C)C(c3cn(C)c4ccc(F)c(F)c34)N2)ccc1-n1cnc(C)c1` (single isomer, unassigned; (-)) [Example 52D, (−)-5-(4,5-difluoro-1-methyl-1H-indol-3-yl)-3-(6-methoxy-5-(4-methyl-1H-imidazol-1-yl)pyridin-2-yl)-6-methyl-5,6-dihydro-4H-1,2,4-oxadiazine], the concentration for half-maximal inhibition (IC50) was 401 nM.
For `COc1nc(C2=NOC(C)C(c3cccc(Cl)c3)N2)ccc1-n1cnc(C)n1` (single isomer, unassigned; (-)) [Example 53A, (−)-5-(3-chlorophenyl)-3-(6-methoxy-5-(3-methyl-1H-1,2,4-triazol-1-yl)pyridin-2-yl)-6-methyl-5,6-dihydro-4H-1,2,4-oxadiazine], the IC50 was more than 3000 nM.
Consider `COc1nc(C2=NOC(C)C(c3cn(C)c4ncc(Cl)cc34)N2)ccc1-n1cnc(C)c1` (single isomer, unassigned; (-)) [Example 54A, (−)-5-(5-chloro-1-methyl-1H-pyrrolo [2,3-b]pyridin-3-yl)-3-(6-methoxy-5-(4-methyl-1H-imidazol-1-yl)pyridin-2-yl)-6-methyl-5,6-dihydro-4H-1,2,4-oxadiazine], for which the IC50 was determined as 190 nM.
In the case of `COc1nc(C2=NOC(C)C(c3cn(C)c4ncc(Cl)cc34)N2)ccc1-n1cnc(C)c1` (single isomer, unassigned; (-)) [Example 54C, (−)-5-(5-chloro-1-methyl-1H-pyrrolo [2,3-b]pyridin-3-yl)-3-(6-methoxy-5-(4-methyl-1H-imidazol-1-yl)pyridin-2-yl)-6-methyl-5,6-dihydro-4H-1,2,4-oxadiazine], the IC50 came out at 464 nM.
The same measure for `COc1nc(C2=NOC(C)C(c3ccc(Cl)c(C(F)F)c3)N2)ccc1-n1cnc(C)c1` (single isomer, unassigned; (-)) [Example 55B, (−)-5-(4-chloro-3-(difluoromethyl)phenyl)-3-(6-methoxy-5-(4-methyl-1H-imidazol-1-yl)pyridin-2-yl)-6-methyl-5,6-dihydro-4H-1,2,4-oxadiazine]: 352 nM.
Consider `COc1nc(C2=NOC(C)C(c3cn(C)c4ncc(C5CC5)cc34)N2)ccc1-n1cnc(C)c1` (single isomer, unassigned; (-)) [Example 56B, (−)-5-(5-cyclopropyl-1-methyl-1H-pyrrolo [2,3-b]pyridin-3-yl)-3-(6-methoxy-5-(4-methyl-1H-imidazol-1-yl)pyridin-2-yl)-6-methyl-5,6-dihydro-4H-1,2,4-oxadiazine], for which the IC50 turned out to be 13 nM.
As for `COc1nc(C2=NOC(C)C(c3cn(C)c4ncc(C5CC5)cc34)N2)ccc1-n1cnc(C)c1` (single isomer, unassigned; (-)) [Example 56C, (−)-5-(5-cyclopropyl-1-methyl-1H-pyrrolo [2,3-b]pyridin-3-yl)-3-(6-methoxy-5-(4-methyl-1H-imidazol-1-yl)pyridin-2-yl)-6-methyl-5,6-dihydro-4H-1,2,4-oxadiazine], the figure is 221 nM; as for `COc1nc(C2=NOC(C3CC3)C(c3cc(F)cc(F)c3)N2)ccc1-n1cnc(C)c1` (single isomer, unassigned; (-)) [Example 59B, (−)-6-cyclopropyl-5-(3,5-difluorophenyl)-3-(6-methoxy-5-(4-methyl-1H-imidazol-1-yl)pyridin-2-yl)-5,6-dihydro-4H-1,2,4-oxadiazine], 854 nM.
As for `COc1nc(C2=NOC(C3CC3)C(c3cn(C)c4ncc(F)c(F)c34)N2)ccc1-n1cnc(C)c1` (single isomer, unassigned; (-)) [Example 60B, (−)-6-cyclopropyl-5-(4,5-difluoro-1-methyl-1H-pyrrolo [2,3-b]pyridin-3-yl)-3-(6-methoxy-5-(4-methyl-1H-imidazol-1-yl)pyridin-2-yl)-5,6-dihydro-4H-1,2,4-oxadiazine], the figure is 42.7 nM; as for `COc1nc(C2=NOC(C3CC3)C(c3cc4ccccc4o3)N2)ccc1-n1cnc(C)c1` (single isomer, unassigned; (-)) [Example 61B, (−)-5-(benzofuran-2-yl)-6-cyclopropyl-3-(6-methoxy-5-(4-methyl-1H-imidazol-1-yl)pyridin-2-yl)-5,6-dihydro-4H-1,2,4-oxadiazine], 598 nM.
The same measure for `COc1nc(C2=NOC(C)C(c3cn(C)c4ncc(Cl)c(F)c34)N2)ccc1-n1cnc(C)c1` (single isomer, unassigned; (-)) [Example 62B, (−)-5-(5-chloro-4-fluoro-1-methyl-1H-pyrrolo [2,3-b]pyridin-3-yl)-3-(6-methoxy-5-(4-methyl-1H-imidazol-1-yl)pyridin-2-yl)-6-methyl-5,6-dihydro-4H-1,2,4-oxadiazine]: 484 nM.
Take `COc1nc(C2=NOC(C3CC3)C(c3cn(C)c4nccc(F)c34)N2)ccc1-n1cnc(C)c1` (single isomer, unassigned; (-)) [Example 63B, (−)-6-cyclopropyl-5-(4-fluoro-1-methyl-1H-pyrrolo [2,3-b]pyridin-3-yl)-3-(6-methoxy-5-(4-methyl-1H-imidazol-1-yl)pyridin-2-yl)-5,6-dihydro-4H-1,2,4-oxadiazine]: the IC50 came out at 105 nM.
As for `COc1nc(C2=NOC(C)C(c3ccc(Cl)c(F)c3)N2)ccc1-n1cnc(C)c1` (stereo not drawn) [40-IA or 40-IIA, (−)-(cis)-5-(4-chloro-3-fluorophenyl)-3-(6-methoxy-5-(4-methyl-1H-imidazol-1-yl)pyridin-2-yl)-6-methyl-5,6-dihydro-4H-1,2,4-oxadiazine], the IC50 came to 1840 nM.
With `COc1nc(C2=NOC(C)C(c3ccc(Cl)c(F)c3)N2)ccc1-n1cnc(C)c1` (stereo not drawn) [40-IB or 40-IIB, (+)-(cis)-5-(4-chloro-3-fluorophenyl)-3-(6-methoxy-5-(4-methyl-1H-imidazol-1-yl)pyridin-2-yl)-6-methyl-5,6-dihydro-4H-1,2,4-oxadiazine], the IC50 worked out at 7.5 nM.
As for `COc1nc(C2=NOC(C3CC3)C(c3cn(C)c4ncc(Cl)cc34)N2)ccc1-n1cnc(C)c1` (stereo not drawn) [57A or 58A, (+)-(cis)-5-(5-chloro-1-methyl-1H-pyrrolo[2,3-b]pyridin-3-yl)-6-cyclopropyl-3-(6-methoxy-5-(4-methyl-1H-imidazol-1-yl)pyridin-2-yl)-5,6-dihydro-4H-1,2,4-oxadiazine], the figure is 1240 nM.
Take `COc1nc(C2=NOC(C3CC3)C(c3cn(C)c4ncc(Cl)cc34)N2)ccc1-n1cnc(C)c1` (stereo not drawn) [57B or 58B, (−)-(cis)-5-(5-chloro-1-methyl-1H-pyrrolo[2,3-b]pyridin-3-yl)-6-cyclopropyl-3-(6-methoxy-5-(4-methyl-1H-imidazol-1-yl)pyridin-2-yl)-5,6-dihydro-4H-1,2,4-oxadiazine]: the IC50 stood at 6.7 nM.
Consider `COc1nc(C2=NO[C@@H](C)[C@@H](c3ccc(Cl)cc3)N2)ccc1-n1cnc(C)c1` [Example 18A, (−)-(5R,6S)-5-(4-chlorophenyl)-3-[6-methoxy-5-(4-methyl-1H-imidazol-1-yl)pyridin-2-yl]-6-methyl-5,6-dihydro-4H-1,2,4-oxadiazine], for which the IC50 was found to be 2220 nM.
As to `COc1nc(C2=NO[C@H](C)[C@H](c3ccc(Cl)cc3)N2)ccc1-n1cnc(C)c1` [Example 18B, (+)-(5S,6R)-5-(4-chlorophenyl)-3-[6-methoxy-5-(4-methyl-1H-imidazol-1-yl)pyridin-2-yl]-6-methyl-5,6-dihydro-4H-1,2,4-oxadiazine], the IC50 worked out at 19 nM.
`COc1nc(C2=NOC(C)C(c3ccc(Cl)c(Cl)c3)N2)ccc1-n1cnc(C)c1` (stereo not drawn) [Example 19A, (−)-cis-5-(3,4-dichlorophenyl)-3-[6-methoxy-5-(4-methyl-1H-imidazol-1-yl)pyridin-2-yl]-6-methyl-5,6-dihydro-4H-1,2,4-oxadiazine]: the IC50 is 910 nM.
As for `COc1nc(C2=NOC(C)C(c3ccc(Cl)c(Cl)c3)N2)ccc1-n1cnc(C)c1` (stereo not drawn) [Example 19B, (+)-cis-5-(3,4-dichlorophenyl)-3-[6-methoxy-5-(4-methyl-1H-imidazol-1-yl)pyridin-2-yl]-6-methyl-5,6-dihydro-4H-1,2,4-oxadiazine], the IC50 came to 6 nM.
As to `COc1nc(C2=NOC(C3CC3)C(c3ccc(Cl)cc3)N2)ccc1-n1cnc(C)c1` (stereo not drawn) [Example 20A, (−)-cis-5-(4-chlorophenyl)-6-cyclopropyl-3-[6-methoxy-5-(4-methyl-1H-imidazol-1-yl)pyridin-2-yl]-5,6-dihydro-4H-1,2,4-oxadiazine], the IC50 came out at 1780 nM.
As for `COc1nc(C2=NOC(C3CC3)C(c3ccc(Cl)cc3)N2)ccc1-n1cnc(C)c1` (stereo not drawn) [Example 20B, (+)-cis-5-(4-chlorophenyl)-6-cyclopropyl-3-[6-methoxy-5-(4-methyl-1H-imidazol-1-yl)pyridin-2-yl]-5,6-dihydro-4H-1,2,4-oxadiazine], the figure is 9 nM; as for `COc1nc(C2=NOC(C)C(c3ccc(Cl)cc3)N2)ccc1-n1cnc(C)c1` (stereo not drawn) [Example 24A, (−)-trans-5-(4-chlorophenyl)-3-[6-methoxy-5-(4-methyl-1H-imidazol-1-yl)pyridin-2-yl]-6-methyl-5,6-dihydro-4H-1,2,4-oxadiazine], 1200 nM.
In the case of `COc1nc(C2=NOC(C)C(c3ccc(Cl)cc3)N2)ccc1-n1cnc(C)c1` (stereo not drawn) [Example 24B, (+)-trans-5-(4-chlorophenyl)-3-[6-methoxy-5-(4-methyl-1H-imidazol-1-yl)pyridin-2-yl]-6-methyl-5,6-dihydro-4H-1,2,4-oxadiazine], the IC50 is 15 nM.
Take `COc1nc(C2=NOC(C)C(c3nn(C)c4ccc(Cl)cc34)N2)ccc1-n1cnc(C)c1` (stereo not drawn) [Example 69A, (+)-(cis)-5-(5-chloro-1-methyl-1H-indazol-3-yl)-3-(6-methoxy-5-(4-methyl-1H-imidazol-1-yl)pyridin-2-yl)-6-methyl-5,6-dihydro-4H-1,2,4-oxadiazine]: the IC50 was found to be 5.9 nM.
On to `COc1nc(C2=NOC(C)C(c3nn(C)c4ccc(Cl)cc34)N2)ccc1-n1cnc(C)c1` (stereo not drawn) [Example 69B, (−)-(cis)-5-(5-chloro-1-methyl-1H-indazol-3-yl)-3-(6-methoxy-5-(4-methyl-1H-imidazol-1-yl)pyridin-2-yl)-6-methyl-5,6-dihydro-4H-1,2,4-oxadiazine], for which the IC50 came to 706 nM.

A word on the IC50: it is the concentration at which inhibition is half-maximal.
